In experiment [1] the target is T1, HIS-KRAS (G12C, aa 2-185) (Homo sapiens, UniProt P01116, G12C).
T1 construct: HIS-KRAS (G12C, aa 2-185, Sino biological); purchased Sino biological
The experiment can be described thus: KRas G12C binding assay (TR-FRET, SOS1-mediated BODIPY FL GTP nucleotide exchange). The note with it: GDP-loaded HIS-KRAS (G12C) 3 nM, 1 hour pre-incubation with compound, 4 hours with SOS1 ExD and BODIPY FL GTP at 25° C. How it is done: Biological Example 1: KRas G12C Binding Assay
(§1) HIS-KRAS (G12C, aa 2-185, Sino biological) was diluted to 5 uM in EDTA buffer (20 mM HEPES, pH 7.4, 50 mM NaCl, 10 mM EDTA, 0.01% (v/v) Tween-20) and incubated for 30 min at 25° C. The EDTA pretreated HIS-KRAS (G12C) was diluted to 12 nM in assay buffer (25 mM HEPES, pH 7.4, 120 mM NaCl, 5 mM MgCl 2, 1 mM DTT, 0.01% (v/v) Tween 20, 0.1% (w/v) BSA) containing 120 nM GDP (Sigma) and MAb Anti 6HIS—Tb cryptate Gold (Cisbio) and incubated for 1 hour at 25° C. to prepare GDP-loaded HIS-KRAS (G12C). The GDP-loaded HIS-KRAS (G12C) was pre-incubation with diluted compounds in a 384-well plate (Greiner) for 1 hour, then purified SOS1 ExD (Flag tag, aa 564-1049) and BODIPY™ FL GTP (Invitrogen) were added to the assay wells (Final concentration: 3 nM HIS-KRAS (G12C), 2 uM SOS1 ExD, 80 nM BODIPY™ FL GTP, 21 ng/mL MAb Anti 6HIS—Tb cryptate Gold) and incubated for 4 hours at 25° C. TR-FRET signals were then read on Tecan Spark multimode microplate reader. The parameters were F486: Excitation 340 (35) nm, Emission 486 (10) nm, Lag time 100 μs, Integration time 200 μs; F515: Excitation 340 (35) nm, Emission 515 (10) nm, Lag time 100 μs, Integration time 200 μs. TR-FRET ratios for each individual wells were calculated by equation: TR-FRET ratio=(Signal F515/Signal F486)*10000. Then the data were analyzed using a 4-parameter logistic model to calculate IC50 values. The following table lists the IC50 values of certain compounds of the invention.
A general note: Time-resolved FRET reads energy transfer from a long-lived donor to a nearby acceptor.

The target of experiment [2] is T2, GDP-loaded, histidine-tagged, truncated (1-169) KRAS G12C (Homo sapiens, UniProt P01116, G12C).
T2 construct: histidine-tagged, truncated (1-169) KRAS proteins; His
T2 sequence (P01116 1-169 isoform P01116-2 G12C): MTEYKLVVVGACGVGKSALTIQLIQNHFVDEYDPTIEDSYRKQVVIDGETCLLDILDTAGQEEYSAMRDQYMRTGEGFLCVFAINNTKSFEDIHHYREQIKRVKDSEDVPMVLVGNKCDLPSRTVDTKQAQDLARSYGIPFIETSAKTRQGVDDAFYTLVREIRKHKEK
As to the kind of experiment: KRas G12C in vitro covalent MS-based assay. The note with it: KRAS protein 2 uM, denaturing SEC-MS intact mass. It counts as binding. How it is done:
Biological Example 2: KRas G12C In Vitro Covalent MS-Based Assay
GDP-loaded, histidine-tagged, truncated (1-169) KRAS proteins (G12C, WT, G13D, as indicated) at 2 uM final concentration were incubated with the test compounds at the doses and time points indicated in a buffer containing 20 mmol/L HEPES pH 7.5, 150 mmol/L NaCl, 1 mmol/L MgCl 2, and 1 mmol/L DTT. Reactions were quenched by adding formic acid to 0.2%. Samples were buffer exchanged and analyzed by denaturing SEC-MS (Orbitrap Eclipse), Mobile phase: 30% ACN, 0.1% formic acid, 0.02% TFA. Raw data were analyzed by charge state deconvolution with BioPharma Finder 4.1 Intact Mass, ReSpect and Sliding Window algorithms. The masses were calculated via software for KRAS_G12C theoretical sequence and experimental compounds.

The target in the next experiment is HIS-KRAS (G12V) (Homo sapiens, UniProt P01116, G12V). The experiment can be described thus: KRas G12V binding assay (TR-FRET, SOS1-mediated BODIPY FL GTP nucleotide exchange). The note with it: GDP-loaded HIS-KRAS (G12V) 3 nM, 1 hour pre-incubation with compound, 4 hours with SOS1 ExD and BODIPY FL GTP at 25° C. The procedure:
Biological Example 3: KRas G12V Binding Assay
as §1, with “(G12V)” for “(G12C, aa 2-185, Sino biological)”, “(G12V)” for “(G12C)”, “(G12V).” for “(G12C).”, “(G12V),” for “(G12C),”

What is called IC50 is the concentration that inhibits the measured activity by half.

Chain of HIS-KRAS (G12V) (P01116 1-188 isoform P01116-2 G12V): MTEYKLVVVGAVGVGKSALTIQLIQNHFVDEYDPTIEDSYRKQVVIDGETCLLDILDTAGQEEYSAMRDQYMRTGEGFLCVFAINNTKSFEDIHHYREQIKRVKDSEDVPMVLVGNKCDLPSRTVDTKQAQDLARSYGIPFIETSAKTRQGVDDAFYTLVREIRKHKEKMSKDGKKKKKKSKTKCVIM
T1 sequence (P01116 2-185 isoform P01116-2 G12C): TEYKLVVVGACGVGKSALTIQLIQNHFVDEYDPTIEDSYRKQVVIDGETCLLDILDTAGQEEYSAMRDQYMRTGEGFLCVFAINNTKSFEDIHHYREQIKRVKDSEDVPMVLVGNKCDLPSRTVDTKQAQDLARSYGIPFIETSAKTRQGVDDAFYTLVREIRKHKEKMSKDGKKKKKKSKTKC

Regarding `C#Cc1c(F)ccc2cc(O)cc(-c3ncc4c(N5CCCC[C@@H](NC(=O)C=C)C5)nc(OCC56CCCN5CCC6)nc4c3F)c12` [Example 8, N-[(3R)-1-[7-(8-ethynyl-7-fluoro-3-hydroxynaphthalen-1-yl)-8-fluoro-2-(hexahydropyrrolizin-7a-ylmethoxy)pyrido[4,3-d]pyrimidin-4-yl]azepan-3-yl]prop-2-enamide], the IC50 in experiment [1] is 7.11 nM; on HIS-KRAS (G12V), 22.9 nM. Further, the “Binding Model” value in experiment [2] is reported as “Covalent binding”.
Taken in the same sequence, the figures for `C#Cc1c(F)ccc2cc(O)cc(-c3ncc4c(N5CCCC[C@H](NC(=O)C=C)C5)nc(OCC56CCCN5CCC6)nc4c3F)c12` [Example 9, N-[(3S)-1-[7-(8-ethynyl-7-fluoro-3-hydroxynaphthalen-1-yl)-8-fluoro-2-(hexahydropyrrolizin-7a-ylmethoxy)pyrido[4,3-d]pyrimidin-4-yl]azepan-3-yl]prop-2-enamide] were 6.4 nM, 3.15 nM and “Covalent binding”.

(Values after patent US20250145639A1, “MUTANT KRAS MODULATORS AND USES THEREOF” (NEWAVE PHARMACEUTICAL INC., priority 2021, published 2025).)
